Results on 33 compounds are retold here after US9499535B2, “Kinase inhibitors” (ORIGENIS GMBH, priority 2011, dated 2016).

One assay addresses LRRK2 (Homo sapiens, UniProt Q5S007). The assay can be described thus: LRRK2 assay (LanthaScreen Eu Kinase Binding Assay). The settings on record: 5 nM LRRK2, 10 nM tracer 236, RT 1 h; read-out: LRRK2 Activites: IC50. The text has this: Binding of the tracer to the kinase is detected using a europium-labeled anti-tag antibody, which binds to the kinase of interest. […] Binding of an inhibitor to the kinase competes for binding with the tracer, resulting in a loss of FRET. The fluorescence intensity ratio is directly proportional to the amount of peptide phosphorylation.
The inhibitor concentration was plotted versus the emission ratio to determine the IC50 using XLFit 5.0 (IDBS, Guildford) to fit to a sigmoidal dose response curve with a variable slope.
In general terms: In TR-FRET formats the signal depends on donor and acceptor labels being close together.

The next assay addresses T1, SYK kinase (Homo sapiens, UniProt P43405).
T1 construct: purchased Invitrogen, Carlsbad
The assay can be described thus: SYK assay (OMNIA Kinase Assay, Invitrogen). In kind it is biochemical. The settings on record: apparent Ki calculated from the IC50 using the Cheng-Prusoff equation; 1 mM ATP, 10 μM Peptide Substrate; read-out: SYK Activities: Ki. In outline: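 Continuous SOX-fluorescence (Omnia) readout of Tyr 7 peptide (10 μM) phosphorylation with 1 mM ATP and 0.2 mM DTT at 30° C, started by SYK addition. Fluorescence (λex 360/λem 485 nm) was read every 30 s for 30 min. IC50 from velocity vs concentration; apparent Ki via Cheng-Prusoff.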

LRRK2, sequence (Q5S007 970-2527 limits assumed): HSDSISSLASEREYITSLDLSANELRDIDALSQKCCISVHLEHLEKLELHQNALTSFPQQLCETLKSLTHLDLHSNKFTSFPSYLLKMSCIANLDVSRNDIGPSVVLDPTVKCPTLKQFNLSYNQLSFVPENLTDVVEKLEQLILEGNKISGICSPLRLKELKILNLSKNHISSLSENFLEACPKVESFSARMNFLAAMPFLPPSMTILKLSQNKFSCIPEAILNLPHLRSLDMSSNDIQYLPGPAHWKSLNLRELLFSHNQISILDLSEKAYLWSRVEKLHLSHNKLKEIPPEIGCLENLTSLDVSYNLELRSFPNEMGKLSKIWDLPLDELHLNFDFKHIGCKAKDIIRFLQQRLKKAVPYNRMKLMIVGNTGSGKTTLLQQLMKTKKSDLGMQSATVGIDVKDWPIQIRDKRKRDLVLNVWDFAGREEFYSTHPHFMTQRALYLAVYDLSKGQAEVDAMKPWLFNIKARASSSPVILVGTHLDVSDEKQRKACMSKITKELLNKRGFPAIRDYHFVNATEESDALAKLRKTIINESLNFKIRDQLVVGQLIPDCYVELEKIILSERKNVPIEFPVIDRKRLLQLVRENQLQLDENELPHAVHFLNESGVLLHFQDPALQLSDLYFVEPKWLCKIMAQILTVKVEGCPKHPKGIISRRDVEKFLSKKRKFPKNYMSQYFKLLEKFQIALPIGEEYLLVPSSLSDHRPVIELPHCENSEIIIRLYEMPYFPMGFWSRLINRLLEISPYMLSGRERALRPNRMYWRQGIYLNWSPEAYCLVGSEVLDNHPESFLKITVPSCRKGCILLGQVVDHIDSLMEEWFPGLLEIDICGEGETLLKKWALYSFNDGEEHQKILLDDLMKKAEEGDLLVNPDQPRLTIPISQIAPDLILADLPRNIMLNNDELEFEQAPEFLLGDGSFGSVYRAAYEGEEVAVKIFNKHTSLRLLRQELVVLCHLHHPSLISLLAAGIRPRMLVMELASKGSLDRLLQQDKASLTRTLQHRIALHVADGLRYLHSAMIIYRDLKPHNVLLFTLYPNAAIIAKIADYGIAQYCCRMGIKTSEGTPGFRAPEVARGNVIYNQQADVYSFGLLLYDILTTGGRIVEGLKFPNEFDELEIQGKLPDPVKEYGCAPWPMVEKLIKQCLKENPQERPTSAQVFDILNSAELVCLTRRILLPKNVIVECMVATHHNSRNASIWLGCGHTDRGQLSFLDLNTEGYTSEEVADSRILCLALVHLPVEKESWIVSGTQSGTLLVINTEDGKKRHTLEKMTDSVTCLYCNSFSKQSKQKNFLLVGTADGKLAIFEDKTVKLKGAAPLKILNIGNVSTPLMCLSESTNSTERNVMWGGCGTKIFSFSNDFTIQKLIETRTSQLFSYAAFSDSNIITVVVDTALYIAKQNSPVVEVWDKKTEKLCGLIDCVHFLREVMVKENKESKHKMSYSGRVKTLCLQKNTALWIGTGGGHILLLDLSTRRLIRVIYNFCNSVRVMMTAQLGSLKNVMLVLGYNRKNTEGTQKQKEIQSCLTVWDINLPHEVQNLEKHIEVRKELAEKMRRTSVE

As for `COCCOc1ccc(Nc2nc3ccc(OC)cc3c3cn[nH]c23)cc1` [Example #104, [4-(2-Methoxy-ethoxy)-phenyl]-(8-methoxy-3H-pyrazolo[3,4-c]quinolin-4-yl)-amine], the IC50 (commonly the concentration that gives 50% inhibition) on LRRK2 was in the range of 100 to 1000 nM. For the same compound, the Ki at SYK kinase is 10 to 100 nM.
For `CCOc1ccc(Nc2nc3ccc(OC)cc3c3cn[nH]c23)cc1OC` [Example #105, (4-Ethoxy-3-methoxy-phenyl)-(8-methoxy-3H-pyrazolo[3,4-c]quinolin-4-yl)-amine], in that order: 100 to 1000 nM and 10 to 100 nM.
The matching figures for `COc1ccc2nc(Nc3ccc(N4CCCC4=O)cc3)c3[nH]ncc3c2c1` [Example #106]: 100 to 1000 nM and 100 to 1000 nM.
On to `COc1ccc2nc(Nc3ccc(N4CCSCC4)cc3)c3[nH]ncc3c2c1` [Example #107, (8-Methoxy-3H-pyrazolo[3,4-c]quinolin-4-yl)-(4-thiomorpholin-4-yl-phenyl)-amine], for which, at LRRK2, the IC50 fell in the range of 100 to 1000 nM. Besides, the Ki at SYK kinase was 10 to 100 nM.
The matching figures for `COc1ccc2nc(Nc3ccc4oc(=O)[nH]c4c3)c3[nH]ncc3c2c1` [Example #108, 5-(8-Methoxy-3H-pyrazolo[3,4-c]quinolin-4-ylamino)-3H-benzooxazol-2-one]: 100 to 1000 nM and 100 to 1000 nM.
For `COc1ccc2nc(Nc3ccc4c(c3)NCCO4)c3[nH]ncc3c2c1` [Example #109, (3,4-Dihydro-2H-benzo[1,4]oxazin-6-yl)-(8-methoxy-3H-pyrazolo[3,4-c]quinolin-4-yl)-amine], in that order: 10 to 100 nM and 10 to 100 nM.
Take `COc1ccc2nc(Nc3ccc(N4CCS(=O)(=O)CC4)cc3)c3n[nH]cc3c2c1` [Example #111, [4-(1,1-Dioxo-1lambda-6-thiomorpholin-4-yl)-phenyl]-(8-methoxy-3H-pyrazolo[3,4-c]quinolin-4-yl)-amine]: at LRRK2, the IC50 was 10 to 100 nM. Further, the Ki at SYK kinase is 10 to 100 nM.
Consider `COc1ccc2nc(Nc3cccc(O)c3)c3[nH]ncc3c2c1` [Example #113, 3-(8-Methoxy-3H-pyrazolo[3,4-c]quinolin-4-ylamino)-phenol], for which the IC50 at LRRK2 lay within 100 to 1000 nM. Moreover, on SYK kinase, the Ki was 10 to 100 nM.
For the compound `CCOc1ccc(Nc2nc3ccc(OC)cc3c3cn[nH]c23)cc1OCC` [Example #114, (3,4-Diethoxy-phenyl)-(8-methoxy-3H-pyrazolo[3,4-c]quinolin-4-yl)-amine], on LRRK2, the half-inhibitory concentration (IC50) lay in the range of 100 to 1000 nM. Besides, the Ki at SYK kinase is 100 to 1000 nM.
As for `Brc1ccc2nc(Nc3ccc(N4CCOCC4)cc3)c3n[nH]cc3c2c1` [Example #115, (8-Bromo-2H-pyrazolo[3,4-c]quinolin-4-yl)-(4-morpholin-4-yl-phenyl)-amine], the IC50 on LRRK2 was 100 to 1000 nM. At SYK kinase, the Ki was 10 to 100 nM.
As for `COc1ccc2nc(Nc3ccc4[nH]c(=O)oc(=O)c4c3)c3n[nH]cc3c2c1` [Example #117, 6-(8-Methoxy-2H-pyrazolo[3,4-c]quinolin-4-ylamino)-1H-benzo[d][1,3]oxazine-2,4-dione], the concentration for half-maximal inhibition (IC50) on LRRK2 is 100 to 1000 nM. In addition, the Ki at SYK kinase is 100 to 1000 nM.
In the case of `Brc1ccc2nc(Nc3cc[nH]n3)c3n[nH]cc3c2c1` [Example #119, (8-Bromo-2H-pyrazolo[3,4-c]quinolin-4-yl)-(1H-pyrazol-3-yl)-amine], at LRRK2, the 50% inhibitory concentration (IC50) lay within 100 to 1000 nM. Further, the Ki on SYK kinase is 100 to 1000 nM.
Turning to `COc1ccc2nc(Nc3ccc(F)c(OC)c3)c3n[nH]cc3c2c1` [Example #124, (4-Fluoro-3-methoxy-phenyl)-(8-methoxy-2H-pyrazolo[3,4-c]quinolin-4-yl)-amine], at LRRK2, the half-inhibitory concentration (IC50) was 100 to 1000 nM. For the same compound, at SYK kinase, the Ki was 10 to 100 nM.
The matching figures for `COc1ccc2nc(Nc3ccc(OC)c(F)c3)c3n[nH]cc3c2c1` [Example #125, (3-Fluoro-4-methoxy-phenyl)-(8-methoxy-2H-pyrazolo[3,4-c]quinolin-4-yl)-amine]: 100 to 1000 nM and 10 to 100 nM.
For `COc1cc2nc(Nc3ccc(N(C)C)cc3)c3n[nH]cc3c2cc1OC` [Example #135, N-(7,8-Dimethoxy-2H-pyrazolo[3,4-c]quinolin-4-yl)-N′,N′-dimethyl-benzene-1,4-diamine], in that order: 100 to 1000 nM and 10 to 100 nM.
On to `COc1ccc2nc(Nc3ccc4c(c3)c(C)c(C)n4C)c3n[nH]cc3c2c1` [Example #138, (8-Methoxy-2H-pyrazolo[3,4-c]quinolin-4-yl)-(1,2,3-trimethyl-1H-indol-5-yl)-amine], for which, at LRRK2, the IC50 lay within 100 to 1000 nM. Besides, on SYK kinase, the Ki is 100 to 1000 nM.
As to `COc1cc2nc(Nc3ccc4c(c3)NCCO4)c3n[nH]cc3c2cc1OC` [Example #151, (3,4-Dihydro-2H-benzo[1,4]oxazin-6-yl)-(7,8-dimethoxy-2H-pyrazolo[3,4-c]quinolin-4-yl)-amine], at LRRK2, the IC50 was 100 to 1000 nM. The Ki on SYK kinase was 10 to 100 nM.
With `COc1ccc2nc(Nc3ccc(Cc4ccncc4)cc3)c3n[nH]cc3c2c1` [Example #161, (8-Methoxy-2H-pyrazolo[3,4-c]quinolin-4-yl)-(4-pyridin-4-ylmethyl-phenyl)-amine], the 50% inhibitory concentration (IC50) on LRRK2 fell in the range of 10 to 100 nM. At SYK kinase, the Ki is 10 to 100 nM.
`COc1cccc2c1nc(Nc1ccc3c(c1)NCCO3)c1n[nH]cc12` [Example #168, (3,4-Dihydro-2H-benzo[1,4]oxazin-6-yl)-(6-methoxy-2H-pyrazolo[3,4-c]quinolin-4-yl)-amine]: at LRRK2, the half-inhibitory concentration (IC50) was 100 to 1000 nM. In addition, the Ki at SYK kinase is 10 to 100 nM.
The matching figures for `COc1cccc2c1nc(Nc1ccc(N3CCOCC3)cc1)c1[nH]ncc12` [Example #170, (6-Methoxy-2H-pyrazolo[3,4-c]quinolin-4-yl)-(4-morpholin-4-yl-phenyl)-amine]: 100 to 1000 nM and 10 to 100 nM.
Consider `COc1ccc2c(c1)nc(Nc1ccc3c(c1)NCCO3)c1n[nH]cc12` [Example #173, (3,4-Dihydro-2H-benzo[1,4]oxazin-6-yl)-(7-methoxy-2H-pyrazolo[3,4-c]quinolin-4-yl)-amine], for which the IC50 at LRRK2 lay in the range of 100 to 1000 nM. Moreover, on SYK kinase, the Ki is 10 to 100 nM.
As to `COc1ccc2c(c1)nc(Nc1ccc(OC)c(OC)c1)c1n[nH]cc12` [Example #175, (3,4-Dimethoxy-phenyl)-(7-methoxy-2H-pyrazolo[3,4-c]quinolin-4-yl)-amine], on LRRK2, the IC50 was in the range of 100 to 1000 nM. Besides, the Ki on SYK kinase is 10 to 100 nM.
On to `COc1ccc2c(c1)nc(Nc1ccc(N3CCOCC3)cc1)c1n[nH]cc12` [Example #177, (7-Methoxy-2H-pyrazolo[3,4-c]quinolin-4-yl)-(4-morpholin-4-yl-phenyl)-amine], for which the IC50 on LRRK2 lay within 100 to 1000 nM. Moreover, at SYK kinase, the Ki was less than 10 nM.
For `COc1ccc2nc(Nc3ccc(N4CCOCC4)c(F)c3)c3n[nH]cc3c2c1` [Example #181, (3-Fluoro-4-morpholin-4-yl-phenyl)-(8-methoxy-2H-pyrazolo[3,4-c]quinolin-4-yl)-amine], in that order: 100 to 1000 nM and 10 to 100 nM.
`COc1ccc2nc(Nc3ccc4c(c3)n(C)c(=O)n4C)c3n[nH]cc3c2c1` [Example #189, 5-(8-Methoxy-2H-pyrazolo[3,4-c]quinolin-4-ylamino)-1,3-dimethyl-1,3-dihydro-benzoimidazol-2-one]: the 50% inhibitory concentration (IC50) at LRRK2 lay within 100 to 1000 nM. Also, the Ki at SYK kinase was 10 to 100 nM.
In the case of `COc1ccc2nc(Nc3ccc4c(c3)NCCC4)c3n[nH]cc3c2c1` [Example #196, (8-Methoxy-2H-pyrazolo[3,4-c]quinolin-4-yl)-(1,2,3,4-tetrahydro-quinolin-7-yl)-amine], at LRRK2, the half-maximal inhibitory concentration (IC50) is 100 to 1000 nM. For the same compound, the Ki at SYK kinase is 10 to 100 nM.
For `COc1cccc2nc(Nc3ccc4c(c3)NCCO4)c3n[nH]cc3c12` [Example #198, (3,4-Dihydro-2H-benzo[1,4]oxazin-6-yl)-(9-methoxy-2H-pyrazolo[3,4-c]quinolin-4-yl)-amine], in that order: 10 to 100 nM and 100 to 1000 nM.
For `COc1ccc(Nc2nc3cccc(OC)c3c3c[nH]nc23)cc1OC` [Example #200, (3,4-Dimethoxy-phenyl)-(9-methoxy-2H-pyrazolo[3,4-c]quinolin-4-yl)-amine], the half-maximal inhibitory concentration (IC50) on LRRK2 is 100 to 1000 nM. The Ki at SYK kinase was 100 to 1000 nM.
In the case of `COc1ccc(Nc2nc3ccccc3c3c(C)[nH]nc23)cc1OC` [Example #207, (3,4-Dimethoxy-phenyl)-(1-methyl-2H-pyrazolo[3,4-c]quinolin-4-yl)-amine], the concentration for half-maximal inhibition (IC50) on LRRK2 lay in the range of 100 to 1000 nM. Also, the Ki on SYK kinase was 10 to 100 nM.
For `COc1ccc(Nc2nc3ccc(C#N)cc3c3c[nH]nc23)cc1OC` [Example #216, 4-(3,4-Dimethoxy-phenylamino)-2H-pyrazolo[3,4-c]quinoline-8-carbonitrile], in that order: 100 to 1000 nM and 10 to 100 nM.
`COc1ccc2nc(Nc3ccc4c(c3)OCC(=O)N4)c3[nH]ncc3c2c1` [Example #224, 7-(8-Methoxy-3H-pyrazolo[3,4-c]quinolin-4-ylamino)-4H-benzo[1,4]oxazin-3-one]: the IC50 on LRRK2 fell in the range of 100 to 1000 nM. The Ki on SYK kinase is 10 to 100 nM.
Consider `COc1ccc2nc(Nc3ccc(C)cc3)c3n[nH]cc3c2c1` [Example #244, (8-Methoxy-2H-pyrazolo[3,4-c]quinolin-4-yl)-p-tolyl-amine], for which the 50% inhibitory concentration (IC50) on LRRK2 was in the range of 100 to 1000 nM. The Ki at SYK kinase is 10 to 100 nM.
The matching figures for `COc1cccc2c1nc(Nc1ccc(N3CCSCC3)cc1)c1n[nH]cc12` [Example #247, (6-Methoxy-2H-pyrazolo[3,4-c]quinolin-4-yl)-(4-thiomorpholin-4-yl-phenyl)-amine]: 100 to 1000 nM and 10 to 100 nM.
